According to patent publication US11618749B2, “Compounds and compositions for treating conditions associated with STING activity” (IFM Due, Inc., priority 2018, dated 2023):

target: T1, hSTING (Homo sapiens, UniProt Q86WV6, G230A/H232R/R293Q/R71H); assay: STING reporter assay (luciferase reporter) in THP1-Dual KO-IFNAR2 cells activated with 2′3′cGAMP; assay type: cell-based; details: 15 μM 2′3′cGAMP, 24 h, luciferase reporter activity
T1 construct: host or cells: THP1-Dual KO-IFNAR2 cells
Experimental: STING pathway activation by the compounds described herein is measured using THP1-Dual™ cells (KO-IFNAR2).
THP1-Dual™ KO-IFNAR2 Cells (obtained from invivogen) are maintained in RPMI, 10% FCS, 5 ml P/S, 2 mM L-glut, 10 mM Hepes, and 1 mM sodium pyruvate. Compounds are spotted in empty 384 well tissue culture plates (Greiner 781182) by Echo for a final concentration of […]. Cells are plated into the TC plates at 40 μL per well, 2×10E6 cells/mL. For activation with STING ligand, 2′3′cGAMP (MW 718.38, obtained from Invivogen), is prepared in Optimem media.
The following solutions are prepared for each 1×384 plate: • Solution A: 2 mL Optimem with one of the following stimuli: • 60 uL of 10 mM 2′3′cGAMP→150 μM stock • Solution B: 2 mL Optimem with 60 μL Lipofectamine 2000→Incubate 5 min at RT
2 mL of solution A and 2 ml Solution B is mixed and incubated for 20 min at room temperature (RT). 20 uL of transfection solution (A+B) is added on top of the plated cells, with a final 2′3′cGAMP concentration of 15 μM. The plates are then centrifuged immediately at 340 g for 1 minute, after which they are incubated at 37° C., 5% CO2, >98% humidity for 24 h. Luciferase reporter activity is then measured. EC50 values were calculated by using standard methods known in the art.
Luciferase Reporter Assay:
10 μL of supernatant from the assay is transferred to white 384-plate with flat bottom and squared wells. one pouch of QUANTI-Luc™ Plus is dissolved in 25 mL of water. 100 μL of QLC Stabilizer per 25 mL of QUANTI-Luc™ Plus solution was added. 50 μL of QUANTI-Luc™ Plus/QLC solution per well is then added. Luminescence is measured on a Platereader (e.g., Spectramax I3X (Molecular Devices GF3637001)).
Luciferase reporter activity is then measured. EC50 values are calculated by using standard methods known in the art.

T1 sequence (Q86WV6 whole entry R71H/G230A/H232R/R293Q): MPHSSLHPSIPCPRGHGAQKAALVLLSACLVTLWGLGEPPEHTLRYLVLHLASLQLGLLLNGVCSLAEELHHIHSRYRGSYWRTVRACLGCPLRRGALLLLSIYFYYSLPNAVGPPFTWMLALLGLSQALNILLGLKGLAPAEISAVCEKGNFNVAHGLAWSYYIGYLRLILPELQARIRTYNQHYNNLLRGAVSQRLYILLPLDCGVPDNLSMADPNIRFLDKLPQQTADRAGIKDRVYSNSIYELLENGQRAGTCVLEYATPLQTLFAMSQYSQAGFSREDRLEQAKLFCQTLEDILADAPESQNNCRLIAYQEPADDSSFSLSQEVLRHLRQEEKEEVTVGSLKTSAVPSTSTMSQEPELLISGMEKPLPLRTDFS

| SMILES | EC50 [µM] |
| --- | --- |
| O=C(Nc1c[nH]c2ccc(-c3ccccc3)nc12)NC1CCC(C(F)(F)F)CC1 (stereo not shown) [Compound 335] | 1 to 5 |
| N#Cc1cnc2[nH]cc(NC(=O)Nc3ccc(C(F)(F)F)cc3)c2c1 [Compound 151] | 0.2 to 1 |
| C=Cc1cnc2[nH]cc(NC(=O)Nc3ccc(C(F)(F)F)cc3)c2c1 [Compound 276, 3-[5-ethenyl-1H-pyrrolo[2,3-b]pyridin-3-yl]-1-[4-(trifluoromethyl)phenyl] urea] | 0.2 to 1 |
| CC(C)n1cc(-c2ccnc3[nH]cc(NC(=O)Nc4ccc(C(F)(F)F)cc4)c23)cn1 [Compound 186] | 5 to 100 |
| O=C(Nc1ccc(C(F)(F)F)cc1)Nc1c[nH]c2nccc(-c3ccncc3)c12 [Compound 206] | 5 to 100 |
| O=C(Nc1c[nH]c2ncccc12)N1CCc2ccccc21 [Compound 303] | 5 to 100 |
| Cc1cnc2[nH]cc(NC(=O)Nc3ccc(C(F)(F)F)cc3)c2c1 [Compound 163] | 0.2 to 1 |
| O=C(Nc1ccc(C(F)(F)F)cn1)Nc1c[nH]c2ncc(F)cc12 [Compound 138] | 0.2 to 1 |
| O=C(Nc1ccc(C(F)(F)F)cc1)Nc1c[nH]c2ncc(Br)cc12 [Compound 147] | 0.04 to 0.2 |
| O=C(Nc1ccc(C(F)(F)F)nc1)Nc1c[nH]c2ncc(F)cc12 [Compound 281] | 1 to 5 |
| CCCCC1CCC(NC(=O)Nc2c[nH]c3ncccc23)C1 (stereo not shown) [Compound 285] | 1 to 5 |
| CCCCC1CCC(NC(=O)Nc2c[nH]c3ncccc23)CC1 (stereo not shown) [Compound 170] | 0.2 to 1 |
| O=C(Nc1c[nH]c2cccnc12)NC1CCC(c2ccccc2)CC1 (stereo not shown) [Compound 325] | 5 to 100 |
| CC(C)(O)c1cccc(-c2cnc3[nH]cc(NC(=O)Nc4ccc(C(F)(F)F)cc4)c3c2)c1 [Compound 215] | 1 to 5 |
| CN(C)S(=O)(=O)c1cccc(-c2cnc3[nH]cc(NC(=O)Nc4ccc(C(F)(F)F)cc4)c3c2)c1 [Compound 204] | 1 to 5 |
| CS(=O)(=O)c1ccc(-c2cnc3[nH]cc(NC(=O)Nc4ccc(C(F)(F)F)cc4)c3c2)cc1 [Compound 207] | 5 to 100 |
| CCCCc1cccc(NC(=O)Nc2c[nH]c3ncc(F)cc23)c1 [Compound 274] | 0.04 to 0.2 |
| O=C(Nc1c[nH]c2ncccc12)NC1Cc2ccccc2C1 [Compound 302] | 5 to 100 |
| O=C(Nc1c[nH]c2ncccc12)NC1CCC(c2ccccc2)CC1 (stereo not shown) [Compound 166] | 0.2 to 1 |
| CC(C)n1cc(-c2cnc3[nH]cc(NC(=O)Nc4ccc(C(F)(F)F)cc4)c3c2)cn1 [Compound 193] | 0.2 to 1 |
| O=C(Nc1c[nH]c2ncc(F)cc12)NC1CCC2(CCC2)CC1 [Compound 247] | 1 to 5 |
| C#Cc1cnc2[nH]cc(NC(=O)Nc3ccc(C(F)(F)F)cc3)c2c1 [Compound 258, 1-(5-ethynyl-1H-pyrrolo[2,3-b]pyridin-3-yl)-3-(4-(trifluoromethyl)phenyl)urea] | 0.2 to 1 |
| O=C(Nc1ccc(C(F)(F)F)cn1)Nc1c[nH]c2ncccc12 [Compound 265] | 0.2 to 1 |
| O=C(Nc1ccc(C(F)(F)F)cn1)Nc1c[nH]c2ccncc12 [Compound 319] | 1 to 5 |
| O=S(=O)(Nc1ccc(C(F)(F)F)cc1)Nc1c[nH]c2ncc(F)cc12 [Compound 337] | 5 to 100 |

| SMILES | EC50 [µM] |
| --- | --- |
| O=C(Nc1nc2ccccc2s1)Nc1c[nH]c2ncc(F)cc12 [Compound 292] | 0.2 to 1 |
| O=C(Nc1c[nH]c2ncccc12)NC1CCc2ccccc2C1 (stereo not shown) [Compound 136] | 5 to 100 |
| O=C(Nc1ccc2ccncc2c1)Nc1c[nH]c2ncc(F)cc12 [Compound 287] | 1 to 5 |
| CC(C)(O)c1ccc(-c2cnc3[nH]cc(NC(=O)Nc4ccc(C(F)(F)F)cc4)c3c2)cc1 [Compound 209] | 1 to 5 |
| O=C(Nc1ccc2cnccc2c1)Nc1c[nH]c2ncc(F)cc12 [Compound 288] | 5 to 100 |
| CCCCC1CCC(N/C(=N\C#N)Nc2c[nH]c3cccnc23)CC1 (stereo not shown) [Compound 336] | 0.2 to 1 |
| COc1ccc(F)c(F)c1-c1cnc2[nH]cc(NC(=O)Nc3ccc(C(F)(F)F)cc3)c2c1 [Compound 214] | 5 to 100 |
| O=C(Nc1cccc(C(F)(F)F)c1)Nc1c[nH]c2ncc(F)cc12 [Compound 297] | 0.2 to 1 |
| O=C(Nc1c[nH]c2ccncc12)NC1CCC(c2ccccc2)CC1 (stereo not shown) [Compound 321] | 5 to 100 |
| O=C(Nc1ccc(C2CCCCC2)nc1)Nc1c[nH]c2cnccc12 [Compound 312] | 1 to 5 |
| CN(C(=O)Nc1c[nH]c2ncc(F)cc12)c1ccc(C(F)(F)F)cc1 [Compound 172] | 5 to 100 |
| O=C(Nc1ccc(C(F)(F)F)nc1)Nc1c[nH]c2cccnc12 [Compound 156] | 5 to 100 |
| O=C(Nc1ccc(C2CCC2)c(F)c1)Nc1c[nH]c2ncc(F)cc12 [Compound 250] | 0.2 to 1 |
| O=C(Nc1cccc2c1CCCC2)Nc1c[nH]c2ncc(F)cc12 [Compound 284] | 1 to 5 |
| O=C(Nc1ccc(C(F)(F)F)cc1)Nc1c[nH]c2cncc(F)c12 [Compound 164] | 5 to 100 |
| O=C(Nc1c[nH]c2ncccc12)NC1CC(c2ccccc2)C1 (stereo not shown) [Compound 133] | 5 to 100 |
| O=C(Nc1c[nH]c2ncccc12)NC1CCCC(c2ccccc2)C1 (stereo not shown) [Compound 304] | 5 to 100 |
| O=C(Nc1ccc(C2CCCCC2)cn1)Nc1c[nH]c2ncccc12 [Compound 264] | 0.2 to 1 |
| CCCCc1ccc(NC(=O)Nc2c[nH]c3ncc(F)cc23)cc1 [Compound 275] | 0.04 to 0.2 |
| O=C(Nc1c[nH]c2cccnc12)N1CCC2(CCCC2)CC1 [Compound 159, N-(1H-pyrrolo[3,2-b]pyridin-3-yl)-8-azaspiro[4.5]decane-8-carboxamide] | 5 to 100 |
| CCCCC1CCC(NC(=O)Nc2c[nH]c3ncc(F)cc23)CC1 (stereo not shown) [Compound 273] | 0.2 to 1 |
| CC(c1ccc(-c2cnc3[nH]cc(NC(=O)Nc4ccc(C(F)(F)F)cc4)c3c2)cc1)N(C)C (stereo not shown) [Compound 196] | 5 to 100 |
| O=C(Nc1ccc(C(F)(F)F)cc1)Nc1c[nH]c2ncc(-c3ccc(N4CCOCC4)nc3)cc12 [Compound 188] | 5 to 100 |
| CC(c1ccc(-c2ccnc3[nH]cc(NC(=O)Nc4ccc(C(F)(F)F)cc4)c23)cc1)N(C)C (stereo not shown) [Compound 192] | 5 to 100 |
| O=C(Nc1cccc(C(F)(F)F)c1)Nc1c[nH]c2ncccc12 [Compound 150] | 1 to 5 |

| SMILES | EC50 [µM] |
| --- | --- |
| Cc1nc2cc(NC(=O)Nc3c[nH]c4ncc(F)cc34)ccc2s1 [Compound 286] | 1 to 5 |
| CN1CC=C(c2cnc3[nH]cc(NC(=O)Nc4ccc(C(F)(F)F)cc4)c3c2)CC1 [Compound 213] | 5 to 100 |
| O=C(Nc1cccc(C2CCCCC2)n1)Nc1c[nH]c2ncc(F)cc12 [Compound 260] | 1 to 5 |
| O=C(Nc1ccc(C(F)(F)F)cc1)Nc1c[nH]c2cnc(-c3ccccc3)nc12 [Compound 180] | 5 to 100 |
| CCCCc1ccc(N(C)C(=O)Nc2c[nH]c3ncc(F)cc23)cc1 [Compound 246] | 1 to 5 |
| O=C(Nc1ccc(C2CCCCC2)nc1)Nc1c[nH]c2cccnc12 [Compound 331] | 1 to 5 |
| O=C(Nc1ccc(C(F)(F)F)cc1)Nc1c[nH]c2ccncc12 [Compound 145] | 0.2 to 1 |
| O=C(Nc1c[nH]c2ncccc12)N1CCCc2ccccc21 [Compound 301] | 5 to 100 |
| O=C(Nc1ccc(C(F)(F)F)cc1)Nc1c[nH]c2cccnc12 [Compound 146] | 1 to 5 |
| O=C(Nc1ccc(C(F)(F)F)cc1)Nc1c[nH]c2c(F)cncc12 [Compound 165] | 0.2 to 1 |
| CCCCC1CCN(C(=O)Nc2c[nH]c3ncccc23)CC1 [Compound 132] | 1 to 5 |
| O=C(Nc1cccc(C(F)(F)F)c1)Nc1c[nH]c2ccncc12 [Compound 148] | 1 to 5 |
| CC(NC(=O)Nc1c[nH]c2ncc(F)cc12)c1ccc2c(c1)OCCO2 (stereo not shown) [Compound 279] | 5 to 100 |
| O=C(Nc1ccc2c(c1)CCCC2)Nc1c[nH]c2ncc(F)cc12 [Compound 296] | 0.04 to 0.2 |
| CCCCC1CCN(C(=O)Nc2c[nH]c3ncc(F)cc23)CC1 [Compound 294] | 5 to 100 |
| C#Cc1ccc(NC(=O)Nc2c[nH]c3ncc(F)cc23)cc1 [Compound 291] | 0.04 to 0.2 |
| O=C(Nc1c[nH]c2ncc(F)cc12)NC1CCC2(CC1)CC2 [Compound 305] | 1 to 5 |
| O=C(Nc1cccc(C2CCCCC2)c1)Nc1c[nH]c2ncc(F)cc12 [Compound 271] | 0.2 to 1 |
| O=C(Nc1ccc(F)cn1)Nc1c[nH]c2ncc(F)cc12 [Compound 280] | 1 to 5 |
| O=C(Nc1cc(F)cc(F)c1)Nc1c[nH]c2ncc(F)cc12 [Compound 298] | 1 to 5 |
| O=C(Nc1ccc(C2CCCCC2)cn1)Nc1c[nH]c2cccnc12 [Compound 326] | 0.2 to 1 |
| O=C(Nc1c[nH]c2ncc(F)cc12)NC1CCC(C(F)(F)F)CC1 (stereo not shown) [Compound 270] | 5 to 100 |
| O=C(Nc1cccc(C(F)(F)F)c1)Nc1c[nH]c2cnccc12 [Compound 149] | 5 to 100 |
